The values below come from the NIST ThermoML archive (doi:10.1016/j.jct.2012.04.011).

Numbers after ± are expanded uncertainties.

The term mass density denotes the mass of a sample divided by its volume. Usually refractive index stands for the speed of light in vacuum divided by its phase velocity in the sample.

The conditions of data set [1]: 298.15 K; 101.33 kPa; Liquid; Vibrating tube method.
A short description of data set [2]: refractive index (Na D-line) (dimensionless). The note with it: 298.2 K; 101.33 kPa; Liquid; Standard Abbe refractometry.
Data set [3] can be described thus: relative permittivity at zero frequency (dimensionless). As to conditions: 298.2 K; 101.33 kPa; Liquid; Parallel plate capacitor.

Turning to `C1CCCCC1` [cyclohexane], in data set [1], the mass density is listed as 773.78 ± 0.24 kg/m3. Moreover, the refractive index in data set [2] came out at 1.4234 ± 0.0007. In addition, in data set [3], the “relative permittivity at zero frequency” value stood at 2.02 ± 0.01.
Turning to `CC1CCCCC1` [methylcyclohexane], in data set [1], the mass density stood at 764.92 ± 0.24 kg/m3. The refractive index in data set [2] was 1.4198 ± 0.0007. Also, in data set [3], the “relative permittivity at zero frequency” value amounted to 2.01 ± 0.01.
For `Cc1ccccc1` [toluene], the mass density in data set [1] turned out to be 862.02 ± 0.24 kg/m3. Also, the refractive index in data set [2] came out at 1.4938 ± 0.0007. In data set [3], the “relative permittivity at zero frequency” value was found to be 2.38 ± 0.01.
On to `O` [water], for which, in data set [2], the refractive index worked out at 1.3325 ± 0.0007.
